Results as given in US20170233409A1, “TYPE IV SECRETION SYSTEM INHIBITORS” (priority 2016, published 2017).

What was measured:
cag T4SS [1] = format: cell-based, H. pylori; details: screening library, tested concentrations
H. pylori = H. pylori viability (cellular ATP, CellTiter-Glo); format: cell-based; details: for H. pylori Toxicity: 150 μM, cellular ATP at 18 h of incubation
cag T4SS [2] = format: cell-based, H. pylori
cag T4SS [3] = experiment: NF-κB luciferase reporter activation by H. pylori in AGS cells; format: cell-based; details: WT H. pylori, AGS NF-κB-luc cells
Protocol: Quantitation of NF-κB signaling activation. AGS cells stably transfected with an NF-κB-luciferase reporter (AGS NF-κB-luc) were cultured for 24 h and treated as described for the IL-8 induction studies. After 4 h co-culture with H. pylori, cell monolayers were washed with sterile PBS, and cell monolayer extracts were obtained by passive cell lysis. NF-κB-luciferase activity was measured by the Steady-Glo Luciferase Assay System (Promega) on a BioTek Synergy 4 plate reader, and plates were normalized to the DMSO vehicle control for each dilution series.

Row | Compound | cag T4SS activity, structure-activity statements (cag T4SS [1]) | H. pylori Toxicity (H. pylori) | other results
1 | O=C(O)c1c(Cc2ccccc2)sc2c(C3CC3)c(Cc3cccc4ccccc34)cc(=O)n12 [EC240, reference compound] | not tolerated | Toxic | 
2 | O=C(O)[C@@H]1CSc2c(-c3cccc(C(F)(F)F)c3)c(Cc3cccc4ccccc34)cc(=O)n21 [FN075, reference compound] | not tolerated | Toxic | 
3 | O=C(O)[C@@H]1CSc2c(C3CC3)c3cn(-c4ccccc4)cc3c(=O)n21 [GKP42, (3R)-9-cyclopropyl-5-oxo-7-phenyl-2,3,5,7-tetrahydropyrrolo[3,4-d][1,3]thiazolo[3,2-a]pyridine-3-carboxylic acid] | inactive |  | LogEC50, attenuation of cag T4SS-dependent IL-8 secretion (cag T4SS [2]; 4.5 h co-culture, normalized IL-8 secretion, non-linear regression): −0.648; cag T4SS-dependent IL-8 secretion (cag T4SS [2]; H. pylori-gastric epithelial cell co-culture, 25-150 μM): minimal or no effects; EC50 (cag T4SS [2]; read-out: EC50, attenuation of cag T4SS-dependent IL-8 secretion, 4.5 h co-culture, normalized IL-8 secretion, non-linear regression): 225 µM; cag T4SS-dependent NF-κB activation (cag T4SS [3]): did not attenuate; viability of bacterial cells (H. pylori; concentrations up to 150 μM): did not impact viability
4 | O=C(O)[C@@H]1CSc2c(C3CC3)c3c(-c4cccc5ccccc45)n[nH]c3c(=O)n21 [MS218] | inactive |  | 
5 | O=C([O-])[C@@H]1CSc2c(C3CC3)c(Cc3cccc4ccccc34)c(CN3CCOCC3)c(=O)n21.[Li+] [NP048] | abolished activity |  | 
6 | O=C([O-])[C@@H]1CSc2c(-c3ccccc3)c(Cc3cccc4ccccc34)cc(=O)n21.[Li+] [PhenylC8] | not tolerated |  | 
